Read-outs that look alike come from different tables or passages of the source.
Key:
[1] = Stability of compounds in ethanol solutions (heated; SFC chiral purity); format: physicochemical; conditions: for Enantiomer Excess of Compound: ethanol solution
Source text: Test 3: Evaluation of the Stability of Compounds in Ethanol Solutions.
An appropriate amount of test compound was accurately weighed, added into ethanol to obtain an ethanol solution. The ethanol solution of the compound was stirred in a heated oil bath. At the end of the test, the purity and chiral purity of the compound was detected by high performance liquid chromatography (HPLC) or LC-MS (LCMS) and supercritical fluid chromatography (SFC).

[2] = Stability of solid compounds in ambient temperature (15° C., nitrogen cabinet, dark; SFC chiral purity); format: physicochemical; conditions: for Enantiomer Excess of the Compound: solid
Protocol: Test 2: Evaluation of the Stability of Solid Compounds in Ambient Temperature.
20 mg of test compound was placed into 5 mL brown transparent sealed container with stopper and stoned in the nitrogen cabinet (15° C.) in the dark. After the preset storage time, about 2 mg of test compound was accurately weighed, added into ethanol to prepare 1 mg/mL ethanol solution. The purity and chiral purity of the compound was detected by high performance liquid chromatography (HPLC) or LC-MS (LCMS) and supercritical fluid chromatography (SFC).

[3] = Stability of compounds in human plasma; format: in vitro ADME; conditions: for Recovery (% remaining): human plasma
Protocol: (§1) Test 5: Evaluation of the Stability of Compounds in Rat Plasma and Human Plasma
(§2) 2. Experimental Procedures and Methods • 2.1 Prior to the experiment, the frozen plasma stored at −40° C. was thawed at room temperature and incubated in a 37° C. water bath for 5-10 min; centrifuged at 4000 rpm for 5 min, to remove impurities and lipids in the plasma. Measured the value of pH, if required, adjusted it to 7.4±0.1. • 2.2 Prepared 400 μM intermediate solution by diluting 4 μL of the working solution (10 mM) with 96 μL DMSO. • 2.3 Preparation of incubation samples: Remove 3 μL of intermediate solution (400 μM) to mix with 597 μL of blank plasma to achieve 2 μM of final concentration. Incubate each time point samples (0 min, 10 min, 30 min, 60 min, 120 min, in duplicate) at 37° C. in water bath. • 2.4 An aliquot of 100 μL samples of the final spiked plasma for each time point were removed to sample collected plates, added 400 μL of stop solution (200 ng/mL Tolbutamide plus 20 ng/mL Buspirone in 50% ACN/MeOH) to precipitate protein. Mixed thoroughly. • 2.5 Centrifuged each plate at 4,000 rpm for 20 min. Transfered an aliquot of supernatant (100 μL) from each well to sample plate and mixed with 200 μL ultra pure water. Shaked the plate at 800 rpm for about 10 min before submitting to LC-MS/MS analysis. 3. Experimental Data Analysis
(§3) The ratio of the peak area to the internal standard peak area was used to assess the decrease of the test compound to be measured. The % remaining of the test compound after incubation in plasma was calculated using following equation: % Remaining=100×(PAR at appointed incubation time/PAR at T0 time)
(§4) wherein PAR is the peak area ratio of analyte versus internal standard (IS)
(§5) The appointed incubation time points are: 0 min, 10 min, 30 min, 60 min, 120 min; T0: Samples prior to incubation.

[4] = Stability of compounds in SD rat plasma; format: in vitro ADME
Protocol: as §1, §2, §3, §4, §5

[5] = Stability of compounds in DMSO solutions (heated; SFC chiral purity); format: physicochemical; conditions: for Enantiomer Excess of Compound: DMSO solution
Protocol: Example 4: Evaluation of the Stability of Compounds in DMSO Solutions
An appropriate amount of test compound was accurately weighed, added into DMSO to obtain a DMSO solution. The DMSO solution of the compound was stirred in a heated oil bath. At the end of the test, a sample amount of the DMSO solution was diluted with ethanol and the purity and chiral purity of the compound was detected by high performance liquid chromatography (HPLC) or LC-MS (LCMS) and supercritical fluid chromatography (SFC).

[6] = In vivo pharmacokinetic study in male Sprague-Dawley rats (IV and PO); design: species or system Sprague-Dawley rat; conditions: for Bioavailability: PO 10 mpk vs IV 2 mpk; for MRT inf: read-out: MRT0-inf
Protocol: Test 6: In Vivo Pharmacokinetic Study of the Test Compounds in Rats
To study the pharmacokinetic behavior of the compounds in rats and to evaluate their pharmacokinetic characteristics, their concentrations in plasma were determined by LC/MS/MS.
Appropriate amount of sample was added to a certain amount of pure water, the pH were adjusted to 7-8, to prepare to be 1 mg/mL (filtered and clarified) and 2 mg/mL (with a few particles of suspension) for IV and PO administration. • 2.4 Administration • 18 male SD rats were randomly assigned to 6 treatment groups, 3 rats in each group. Male rats were administrated IV and PO respectively after fasting overnight. The IV dosage was 2 mg/kg, the dose volume was 2 mL/kg, the PO dosage was 10 mg/kg, and the dose volume was 5 mL/kg. 3. Experimental Procedure
For IV group, 250 μL blood samples were collected before administration, and 0.083, 0.25, 0.5, 1, 2, 4, 8, 24 hours after administration, and placed in K2-EDTA anticoagulant tube, centrifuged at 3000 rpm for 15 minutes, plasma was separated, stored at −80° C. For PO Group, blood samples were collected before administration, and 0.25, 0.5, 1, 2, 4, 8, 24 hours after administration, and the other operations were the same as group IV. The content of the test compounds in the plasma of rats after administration of IV and PO were determined by LC/MS/MS method. The linear range of the assay was 6.00-18000 nM, and the lower limit of quantification was 6 nM; the plasma samples were analyzed by pretreatment with precipitated proteins.

[7] = male SD rats, IV 2 mpk, 2 mg/kg
[8] = male SD rats, PO 10 mpk, 10 mg/kg
[9] = male, Sprague-Dawley, rat, plasma, iv, 2 mg/kg, male SD rats, IV 2 mpk
[10] = male, Sprague-Dawley, rat, plasma, po, 10 mg/kg, male SD rats, PO 10 mpk

O=C(O)CSc1nnc(Br)n1-c1ccc(C2CC2)c2ccccc12 (single isomer, unassigned) [(−)-Lesinurad]
Enantiomer Excess of Compound ([1]; 37° C., 4 days): Unchanged
Enantiomer Excess of Compound ([1]; 37° C., 7 days): Unchanged
Enantiomer Excess of Compound ([1]; heating time 0 day): 96.5%
Stability in ethanol solutions (SFC purity) ([1]; heating to 37° C. and up to 70° C.): very stable
Enantiomer Excess of the Compound ([2]; storing time 0 day): 96.5%
Enantiomer Excess of the Compound ([2]; storing time >80 days): Unchanged
Stability of the solid powder (SFC purity) ([2]; storing over 80 days): very stable
Stability after co-incubation with human plasma ([3]; 2 hours): very stable
Recovery (% remaining) ([3]; 2 μM, 37° C., 30 min): 100.4%
Recovery (% remaining) ([3]; 2 μM, 37° C., 60 min): 99.6%
recovery at 120 min, 2 μM ([3]; human, plasma, pH 7.4, human plasma, 2 μM, 37° C., 120 min, read-out: Recovery (% remaining)): 101%
Stability after co-incubation with SD-rat plasma ([4]; 2 hours): very stable
recovery at 0 min, 2 μM ([4]; SD, rat, plasma, pH 7.4, SD rat plasma, 2 μM, 37° C., 0 min, read-out: Recovery (% remaining)): 100%
recovery at 10 min, 2 μM ([4]; SD, rat, plasma, pH 7.4, SD rat plasma, 2 μM, 37° C., 10 min, read-out: Recovery (% remaining)): 102%
recovery at 30 min, 2 μM ([4]; SD, rat, plasma, pH 7.4, SD rat plasma, 2 μM, 37° C., 30 min, read-out: Recovery (% remaining)): 99.9%
recovery at 60 min, 2 μM ([4]; SD, rat, plasma, pH 7.4, SD rat plasma, 2 μM, 37° C., 60 min, read-out: Recovery (% remaining)): 97.9%
recovery at 120 min, 2 μM ([4]; SD, rat, plasma, pH 7.4, SD rat plasma, 2 μM, 37° C., 120 min, read-out: Recovery (% remaining)): 100%
Enantiomer Excess of Compound ([5]; 80° C., 0 h): 96.5%
Enantiomer Excess of Compound ([5]; 80° C., 2 × 24 h): Unchanged
Enantiomer Excess of Compound ([5]; 80° C., 4 × 24 h): Unchanged
Enantiomer Excess of Compound ([5]; 80° C., 2 h): Unchanged
Enantiomer Excess of Compound ([5]; 80° C., 4 h): Unchanged
Enantiomer Excess of Compound ([5]; 80° C., 8 h): Unchanged
Enantiomer Excess of Compound ([5]; 80° C., 24 h): Unchanged
Enantiomer Excess of Compound ([5]; 120° C., 0 h): 96.5%
Enantiomer Excess of Compound ([5]; 120° C., 2 × 24 h): Unchanged
Enantiomer Excess of Compound ([5]; 120° C., 4 × 24 h): Unchanged
Enantiomer Excess of Compound ([5]; 120° C., 2 h): Unchanged
Enantiomer Excess of Compound ([5]; 120° C., 4 h): Unchanged
Enantiomer Excess of Compound ([5]; 120° C., 8 h): Unchanged
Enantiomer Excess of Compound ([5]; 120° C., 24 h): Unchanged
Enantiomer Excess of Compound ([5]; 160° C., 0 h): 96.5%
Enantiomer Excess of Compound ([5]; 160° C., 8 h): Unchanged
Stability in DMSO solutions (SFC purity) ([5]; heating to 80° C., 120° C. and up to 160° C.): very stable
Transformation of the atropisomer in vivo ([6]; SD rats, IV and PO): no transformation was observed
AUC0-inf [6, 7]: 14.419 ± 1.54695 µM·h
C0 [6, 7]: 9.39 ± 3.21 µM
Cl [6, 7]: 5.76 ± 0.59 mL/min/kg
MRT0-inf [6, 7]: 2.16 ± 0.07 h
T1/2 [6, 7]: 1.46 ± 0.03 h
Vdss [6, 7]: 0.75 ± 0.10 L/kg
Bioavailability ([6]; male SD rats): 65.11%
AUC0-inf [6, 8]: 46.94391 ± 11.4987 µM·h
Cmax [6, 8]: 11 ± 3.99 µM
MRT0-inf [6, 8]: 3.92 ± 0.64 h
T1/2 [6, 8]: 2.17 ± 0.10 h
Tmax [6, 8]: 2.33 ± 1.53 h

O=C(O)CSc1nnc(Br)n1-c1ccc(C2CC2)c2ccccc12 (racemic) [(±)-Lesinurad, Lesinurad, reference compound]
clearance ([6]; Sprague-Dawley, rat, plasma, 2 mg/kg, male SD rats, IV 2 mpk): 5.72 ± 1.09 mL/min/kg
AUC0-inf ([6]; Sprague-Dawley, rat, plasma, 2 mg/kg, male SD rats, IV 2 mpk, read-out: AUC0-inf): 14.8 ± 3.15 µM·h
AUC0-inf ([6]; Sprague-Dawley, rat, plasma, 10 mg/kg, male SD rats, PO 10 mpk, read-out: AUC0-inf): 62.5 ± 12.1 µM·h
C0 [6, 9]: 11.6 ± 1.98 µM
half-life [6, 9]: 108 ± 39 min
MRT inf [6, 9]: 2.21 ± 0.63 h
Vd ([6]; male, Sprague-Dawley, rat, plasma, iv, 2 mg/kg, male SD rats, IV 2 mpk, read-out: Vdss): 0.76 ± 0.29 L/kg
Cmax [6, 10]: 14.5 ± 8.47 µM
half-life [6, 10]: 148 ± 10.8 min
Bioavailability ([6]; male, Sprague-Dawley, rat, plasma, po, 10 mg/kg, male SD rats, read-out: Bioavailability): 84.3%
MRT inf [6, 10]: 4.63 ± 1.16 h
Tmax ([6]; male, Sprague-Dawley, rat, plasma, po, 10 mg/kg, male SD rats, PO 10 mpk, read-out: Tmax): 2.33 ± 1.53 h

Reference: patent US10183915B2, “Axially chiral isomers, and preparation methods therefor and pharmaceutical uses thereof” (MEDSHINE DISCOVERY INC., priority 2015, dated 2019)
